Test results published in patent publication US12226405B2, “Compounds and compositions for inhibiting the activity of HIF2-alpha and their methods of use” (Novartis AG, priority 2020, dated 2025).

Legend:
[1] = test system: HIF2α-regulated expression of the endogenous target gene hEGLN3 in 786-O cells; test: Cellular iScript assay for HIF2α (quantitative RT-PCR of hEGLN3); assay type: cell-based, human; conditions: Homo sapiens, 786-0, 48 hours incubation
Protocol: (§1) Stock solutions of compounds were prepared at a concentration of 10 mM in DMSO and stored at 4° C. Where necessary to afford a full dose-response curve, the stock solutions were pre-diluted in DMSO to 1,000-fold the desired reduced start concentration. On the day after cell seeding, eleven 2-fold serial dilutions of each compound were dispensed directly into the cell assay plates using either HP 300D non-contact Digital Dispenser (TECAN) or a ATS100 acoustic dispenser (EDC Biosystems).
Compound-mediated modulation of the HIF2α-regulated expression of the endogenous target gene hEGLN3 (OMIM: 606426), as well as beta-actin (OMIM: 102630) as a house-keeping control, was assess in 786-O cells (RRID CVCL_1051) using a quantitative RT-PCR approach. In short, 786-O cells were maintained in growth medium composed of DMEM (GIBCO #11995-065), 2 mM L-Glutamine (BioConcept #5-10K50-H), 1× Penicillin/Streptomycin (BioConcept #4-01F00-H), 10% fetal calf serum (Gibco #A31608-01), 1 mM Sodium pyruvate (BioConcept #5-60F00-H). Cells were seeded at 1,000 cells/20 μL/well into white-wall, clear-bottom 384-well plates (Greiner #781098) and incubated over night at 37° C. prior to addition of serial compound dilutions as described above. Following incubation for 48 hours at 37° C., medium supernatant was discarded and the plate blotted dry by inverting on a tissue. The same procedure was repeated following one wash with 20 μL phosphate-buffered saline. Following addition of 25 μL/well iScript sample preparation reagent (BioRad #170-8899) using a 16-channel Matrix pipette, the plate was incubated for 2 min at room temperature. 20 μL lysate supernatant was then removed and transferred to a new 384 well plate (Costar #3656) and diluted 1:3 by adding 5 μL of the lysate to 10 μL H2O using a Bravo liquid handler (Agilent). 2 μL of the diluted lysate was added to the 8 μL of a mastermix containing 5 μL iTaq Universal Probes One-step kit (BioRad #172-5141), 0.25 μL iScript reverse transcription supermix (BioRad #1708840), 0.25 μL 40×HEX-ZEN-labeled TaqMan probe for beta-actin (IDT #Hs.PT.39a.22214847: Probe 5′ HEX-TCA TCC ATG/ZEN/GTG AGC TGG CGG-3′ (SEQ ID NO: 2) Iowa Black FQ, Primer 1: ACA GAG CCT CGC CTT TG (SEQ ID NO: 3); Primer 2: CCT TGC ACA TGC CGG (SEQ ID NO: 4) AG), 0.25 μL, 40×FAM-ZEN-labeled TaqMan probe for hEGLN3 (IDT #Hs.PT.58.189348: Probe 5′ 6-FAM-TTT GGC TTC/ZEN/TGC CCT TTC TTC AGC-3′ (SEQ ID NO: 5) Iowa Black FQ, Primer 1: CACGGTCAGTCTTCAGTGAG (SEQ ID NO: 6); Primer 2: CGCAACCAGATATGCTATGACT (SEQ ID NO: 7)), 2.25 μL RNase-free water, prelaid in a 384 well plate (ABI #4309849) using a 16-channel Matrix pipette. The plate was sealed with a PCR-compatible optical film (MicroAmp, ABI #4360954) and centrifuged (1500 rpm, 5 min, +4° C.) to collect all reagents in the bottom of the well and to remove bubbles. The plate content was amplified on a 7900HT thermal cycler (ABI) using the following conditions: Step 1: 50° C. for 10 min, Step 2: 95° C. for 3 min, Step 3 (40×): 95° C. for 15 s, 60° C. for 1 min. ROX (reaction volume 10 μL) was used as a passive reference. Data were collected with manual adjustment of the Ct threshold (beta-actin: 0.046, hEGLN3: 0.06) and were analyzed using the 2^(−ΔΔCt) method. Thus, for each sample, the following values were calculated: 2^(−Ct)a for beta-actin, 2^(−Ct)e for EGLN3, and 2^(−ΔCt) calculated as (2^(−Ct)e/2^(−Ct)a). The mean 2^(−ΔCt) as well as the corresponding standard deviation was calculated for each sample. Taking the DMSO-treated sample as a reference, the 2^(−ΔΔCt) for each sample was calculated as follows: 2^(−ΔΔCt)=2^(−ΔCt)sample/(2^(−ΔCt)DMSO). After calculating differential expression as 2^(−ΔΔCt) for each sample, it was then expressed as a percentage (×100) to obtain a dose-response curve in % of DMSO control and IC50s were calculated using a four-parametric fit model.

[2] = test system: HIF2α-dependent transcription in 786-O-HRE-Luc cells; test: In vitro cellular hypoxia response element (HRE) reporter gene assay (RGA) for HIF2α; assay type: cell-based, human; conditions: Homo sapiens, 24 hours incubation
Protocol: as §1
The ability of compounds to inhibit HIF2α- and HIF1α-dependent transcription was assessed in 786-O-HRE-Luc and RCC4-HRE-Luc cells, respectively. The putative unselective inhibition of firefly luciferase activity or expression was assessed in 786-O-UB6-Luc and RCC4-UB6-Luc cells, respectively. The reporter lines were generated as follows: 786-O (RRID: CVCL_1051) and RCC4 (RRID: CVCL_0498) clear cell renal carcinoma cell lines were obtained from ATCC and Celeste Simon (University of Pennsylvania), respectively. Either cell line was transduced with a lentiviral vector in which the expression of a PEST-destabilized version of firefly-luciferase is under the control of either a minimal promoter coupled to four copies of a minimal hypoxia response element (HRE) sequence (pLenti 4×HRE Luc PEST), or a promoter from the house-keeping UBC gene (pLenti UB6 Luc PEST). In short, for the construction of the pLenti 4×HRE Luc PEST vector, 4×HRE DNA oligonucleotides were synthesized, annealed and cloned into pGL4.27 plasmid vector (Promega) predigested with NheI and HindIII restriction enzymes. The sequence of the two DNA oligonucleotides was as follows: NheI 4×HRE HindIII FWD: […] (SEQ ID NO: 8); NheI 4×HRE HindIII REV […] (SEQ ID NO: 9). The 4×HRE Luc PEST fragment was then PCRed from this plasmid with restriction enzyme sites NheI and XhoI at the two ends, and inserted into pLenti6/BLOCK iT DEST (Thermo Fisher Scientific) predigested with NheI and XhoI restriction enzymes. For the construction of the pLenti UB6 Luc PEST vector, the Luc PEST sequence was PCRed from pGL4.27 (Promega) using EcoRV and XhoI restriction enzymes at the two ends, and inserted into pLenti6/UBC/V5/DEST (Thermo Fisher Scientific) predigested with the same enzymes. 786-O and RCC4 cells (300,000 per well of a 6 well plate) were infected in the presence of 10 μg/ml polybrene with lentivirus harvested two days after transfection of HEK293-FT (ThermoFisher Scientific #R70007) cells (80% confluent in a 100 cm^2 dish) with a mix of 1.5 ml OptiMEM (ThermoFisher Scientific #31985062) containing 3 μg of the desired plasmids and 9 μl of ViralPower Packaging mix (ThermoFisher Scientific #K497500), and 1.5 ml OptiMEM containing 36 μl Lipofectamine 2000 (ThermoFisher Scientific #11668019). Successfully infected cells were selected using blasticidin (Gibco #A11139-03) at a final concentration of 5 μg/ml. The resulting stable cell lines were named 786-O pLenti 4×HRE Luc PEST (short: 786-O-HRE-Luc), 786-O pLenti UB6 Luc PEST (short: 786-O-UB6-Luc), RCC4 pLenti 4×HRE Luc PEST (short: RCC4-HRE-Luc) and RCC4 pLenti UB6 Luc PEST (short: RCC4-UB6-Luc). All 4 cell lines were maintained in growth medium composed of DMEM (GIBCO #11995-065), 2 mM L-Glutamine (BioConcept #5-10K50-H), 10% fetal calf serum (Gibco #A31608-01), 1× Penicillin/Streptomycin (BioConcept #4-01F00-H), 1 mM Sodium pyruvate (BioConcept #5-60F00-H) and 5 μg/ml blasticidin (Gibco #A11139-03) at 37° C. in a humidified 5% CO2 incubator.
For the reporter gene assay, the individual cell lines were seeded at 2,500 cells/20 μL/well into white-wall, clear-bottom 384-well plates (Greiner #781098) and incubated over night at 37° C. prior to addition of serial compound dilutions as described above. […]

[3] = target: HIF2α PAS-B domain (236-350, biotinylated on the N-terminus) (Homo sapiens (Human), UniProt Q99814)
Sequence of HIF2α PAS-B domain (236-350, biotinylated on the N-terminus) (Q99814 236-350): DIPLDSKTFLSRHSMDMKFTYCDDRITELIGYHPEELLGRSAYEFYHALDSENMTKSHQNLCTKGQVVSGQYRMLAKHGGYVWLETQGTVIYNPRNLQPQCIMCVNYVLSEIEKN
Protocol: The assay buffer contained 50 mM Tris-HCl pH7 (Sigma), 20 mM NaCl (Fluka), 0.02% BSA (Sigma), 0.005% Triton X-100 (Pierce) and 1 mM DTT (Fluka). After a 30 min incubation period, 5 μL Streptavidin PVT SPA Beads (Perkin Elmer) at 1.2 mg/mL, diluted in the buffer, were added.

Structure (SMILES)	IC50 [1] [nM]	IC50 [2] [nM]	IC50 [3] [nM]
N#CC1=CN2C[C@@]3(CCc4c3ccc(Br)c4F)N=C2C(OC(F)F)=C1 [Example 4, (S)-5′-bromo-8-(difluoromethoxy)-4′-fluoro-2′,3′-dihydro-3H-spiro[imidazo[1,2-a]pyridine-2,1′-indene]-6-carbonitrile]	155	699	9
FCOC1=CC(C(F)(F)F)=CN2C[C@@]3(CCc4c3ccc(Br)c4F)N=C12 [Example 5, (5)-5′-bromo-4′-fluoro-8-(fluoromethoxy)-6-(trifluoromethyl)-2′,3′-dihydro-3H-spiro[imidazo[1,2-a]pyridine-2,1′-indene]]	138	328	9
Fc1c(Br)ccc2c1CCC[C@@]21CN2C=C(C(F)(F)F)C=C(OC(F)F)C2=N1 [Example 7, (S)-6′-bromo-8-(difluoromethoxy)-5′-fluoro-6-(trifluoromethyl)-3′,4′-dihydro-2′H,3H-spiro[imidazo[1,2-a]pyridine-2,1′-naphthalene]]	32	82	≤ 3
O=C1CC[C@@]2(CN3C=C(C(F)(F)F)C=C(OC(F)F)C3=N2)c2ccc(Br)c(F)c21 [Example 8, (S)-6′-bromo-8-(difluoromethoxy)-5′-fluoro-6-(trifluoromethyl)-2′H,3H-spiro[imidazo[1,2-a]pyridine-2,1′-naphthalen]-4′(3′H)-one]	198	271	14
O=C1c2c(ccc(Br)c2F)[C@@]2(C[C@H]1F)CN1C=C(C(F)(F)F)C=C(OC(F)F)C1=N2 [Example 9, (1′S)-6′-bromo-8-(difluoromethoxy)-3′,5′-difluoro-6-(trifluoromethyl)-2′H,3H-spiro[imidazo[1,2-a]pyridine-2,1′-naphthalen]-4′(3H′)-one]	173	2210	15
O[C@H]1c2c(ccc(Br)c2F)[C@@]2(C[C@H]1F)CN1C=C(C(F)(F)F)C=C(OC(F)F)C1=N2 [Example 10, (1′S,3′R,4'S)-6′-bromo-8-(difluoromethoxy)-3′,5′-difluoro-6-(trifluoromethyl)-3′,4′-dihydro-2′H,3H-spiro[imidazo[1,2-a]pyridine-2,1′-naphthalen]-4′-ol]	77	207	21
FC(F)OC1=CC(C(F)(F)F)=CN2C[C@@]3(CCCc4cc(Br)ccc43)N=C12 [Example 11, (S)-6′-bromo-8-(difluoromethoxy)-6-(trifluoromethyl)-3′,4′-dihydro-2′H,3H-spiro[imidazo[1,2-a]pyridine-2,1′-naphthalene]]	33	89	≤ 3
FC(F)OC1=CC(C(F)(F)F)=CN2C[C@@]3(CCCc4ccccc43)N=C12 [Example 12, (S)-8-(difluoromethoxy)-6-(trifluoromethyl)-3′,4′-dihydro-2′H,3H-spiro[imidazo[1,2-a]pyridine-2,1′-naphthalene]]	59	250	8
N#CC1=CN2C[C@@]3(CCCc4c3ccc(Br)c4F)N=C2C(OC(F)F)=C1 [Example 13, (S)-6′-bromo-8-(difluoromethoxy)-5′-fluoro-3′,4′-dihydro-2′H,3H-spiro[imidazo[1,2-a]pyridine-2,1′-naphthalene]-6-carbonitrile]	42	113	5
Fc1c(Br)ccc2c1C(F)(F)CC[C@@]21CN2C=C(C(F)(F)F)C=C(OC(F)F)C2=N1 [Example 14, (S)-6′-bromo-8-(difluoromethoxy)-4′,4′,5′-trifluoro-6-(trifluoromethyl)-3′,4′-dihydro-2′H,3H-spiro[imidazo[1,2-a]pyridine-2,1′-naphthalene]]	57	146	9
N#Cc1ccc2c(c1F)C(F)(F)CC[C@@]21CN2C=C(C(F)(F)F)C=C(OC(F)F)C2=N1 [Example 15, (S)-8-(difluoromethoxy)-4′,4′,5′-trifluoro-6-(trifluoromethyl)-3′,4′-dihydro-2′H,3H-spiro[imidazo[1,2-a]pyridine-2,1′-naphthalene]-6′-carbonitrile]	128	392	16
